Measurements published in ChEMBL document CHEMBL1201862, “PubChem BioAssay data set” (2004).
Calls of active or inactive are those of the source.

Tests used:
[1] = target: Diphosphomevalonate decarboxylase (Streptococcus pneumoniae serotype 2 (strain D39 / NCTC 7466), UniProt Q9FD53); test: diphosphomevalonate decarboxylase inhibitor confirmation – biochemical, cuvette format, coupled NADH fluorescence (AID 1028); type: functional
BJ [2] = test: BJ-TERT fibroblast viability loss – cell-based, RAS-independent, luminescence, dose response (AID 1933); type: functional; settings: Homo sapiens
BJ [3] = test: cells; type: functional, cell-based; settings: Homo sapiens
[4] = Trypanosoma cruzi growth suppression in host cells – NIH3T3 host cells, beta-gal luminescence, confirmation (AID 2044); type: functional, cell-based;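 note: intracellular parasites grown in NIH/3T3 mouse fibroblasts as host cells; luminescent beta-galactosidase reporter signal from transgenic T. cruzi replicating inside host cells; inhibitors lower the luminescence signal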
[5] = Luminescence-based dose response cell-based high throughput screening assay for cytotoxic compounds using the IEC-6 intestinal epithelial cell line. [Related pubchem assays: 1858 (Summary AID.), 1825 (Counterscreen.), 1907 (Confirmation screen.)]; type: functional
[6] = NIH3T3 cell viability loss – ATP luminescence, mouse fibroblasts, counter-screen, dose response (AID 2010); type: functional, cell-based;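 note: cells exposed to compound for about 90 hours before reading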
BJ [7] = test: BJ-TERT-LT-ST fibroblast viability loss – cell-based, RAS-independent, luminescence, dose response (AID 1935); type: functional; settings: Homo sapiens;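 note: BJ fibroblasts immortalized with TERT plus LT and ST oncogenes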
[8] = DRD fibroblast viability loss – cell-based, non-viral oncogenic, luminescence, dose response (AID 1934); type: functional; settings: Homo sapiens
[9] = HEK-293T viability loss after treatment – luminescence, T-cell screen hits, cytotoxicity control for TCR NF-kB inhibitor project, dose response (AID 489026); type: functional, cell-based;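 note: cells exposed to compound about 14 hours before the viability readout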
[10] = toxicity toward HEK293 cells – cell-based, dry powder samples, cytotoxicity control, dose response (AID 720567); type: functional
[11] = RAM pathway signaling blockade in S. cerevisiae – dose response (AID 1307); type: functional
[12] = target: Aryl hydrocarbon receptor (Homo sapiens, UniProt P35869); test: Luminescence-based cell-based high throughput dose response assay for activators of the Aryl Hydrocarbon Receptor (AHR). [Related pubchem assays: 2796 (Primary screen (AHR activators in singlicate)), 2845 (Confirmation screen (AHR activators in triplicate)), 434939 (Counterscreen (PXR activators in triplicate)), 2804 (Summary (AHR activators))]; type: ADME
[13] = target: T1, Oxysterols receptor LXR-beta (Homo sapiens, UniProt P55055); type: functional, cell-based;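 note: agonist activity at LXR measured by a cell-based luminescence readout across a dose range, run as a counterscreen for daf-12 agonists; HEK293 cells with Gal4-LXR fusion and GAL4-driven luciferase reporter; potency for activation of Gal4-LXR reporter so compounds are agonists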
T1 sequence (P55055 whole entry): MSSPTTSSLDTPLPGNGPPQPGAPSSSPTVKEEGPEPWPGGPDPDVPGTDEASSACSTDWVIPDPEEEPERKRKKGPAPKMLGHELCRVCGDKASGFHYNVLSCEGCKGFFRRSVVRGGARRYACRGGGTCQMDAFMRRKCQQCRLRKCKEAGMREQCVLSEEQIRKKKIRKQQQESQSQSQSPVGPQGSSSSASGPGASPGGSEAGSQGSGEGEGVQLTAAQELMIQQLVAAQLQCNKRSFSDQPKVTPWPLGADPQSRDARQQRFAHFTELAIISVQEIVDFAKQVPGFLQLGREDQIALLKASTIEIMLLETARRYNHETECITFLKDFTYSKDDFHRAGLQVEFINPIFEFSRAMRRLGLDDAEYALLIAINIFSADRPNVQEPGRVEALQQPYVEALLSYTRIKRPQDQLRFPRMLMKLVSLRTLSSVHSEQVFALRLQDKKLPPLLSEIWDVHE

Chain of Aryl hydrocarbon receptor (P35869 whole entry, the tested form may be a part): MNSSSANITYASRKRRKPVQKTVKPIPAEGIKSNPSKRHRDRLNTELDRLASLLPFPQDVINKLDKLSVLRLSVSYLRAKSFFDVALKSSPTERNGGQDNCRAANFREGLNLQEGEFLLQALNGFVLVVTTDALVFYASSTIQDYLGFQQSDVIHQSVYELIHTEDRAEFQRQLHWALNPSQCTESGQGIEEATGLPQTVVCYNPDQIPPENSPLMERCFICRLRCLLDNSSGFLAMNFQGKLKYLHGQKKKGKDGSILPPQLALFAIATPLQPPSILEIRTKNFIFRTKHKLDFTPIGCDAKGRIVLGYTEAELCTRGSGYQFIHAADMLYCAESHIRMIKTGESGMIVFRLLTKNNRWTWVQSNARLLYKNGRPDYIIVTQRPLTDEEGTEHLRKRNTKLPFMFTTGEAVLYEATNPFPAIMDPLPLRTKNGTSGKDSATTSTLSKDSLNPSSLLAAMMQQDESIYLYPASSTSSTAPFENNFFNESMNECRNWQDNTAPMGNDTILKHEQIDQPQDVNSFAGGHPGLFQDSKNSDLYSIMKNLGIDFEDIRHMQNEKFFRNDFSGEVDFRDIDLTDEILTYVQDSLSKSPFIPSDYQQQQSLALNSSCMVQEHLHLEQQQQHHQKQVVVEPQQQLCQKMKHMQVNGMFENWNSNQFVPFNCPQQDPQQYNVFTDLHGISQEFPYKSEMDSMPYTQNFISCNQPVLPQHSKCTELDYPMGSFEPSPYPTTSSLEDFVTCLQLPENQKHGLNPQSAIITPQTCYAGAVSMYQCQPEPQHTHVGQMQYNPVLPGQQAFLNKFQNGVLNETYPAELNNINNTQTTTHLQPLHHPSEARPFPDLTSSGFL
Chain of Diphosphomevalonate decarboxylase (Q9FD53 whole entry): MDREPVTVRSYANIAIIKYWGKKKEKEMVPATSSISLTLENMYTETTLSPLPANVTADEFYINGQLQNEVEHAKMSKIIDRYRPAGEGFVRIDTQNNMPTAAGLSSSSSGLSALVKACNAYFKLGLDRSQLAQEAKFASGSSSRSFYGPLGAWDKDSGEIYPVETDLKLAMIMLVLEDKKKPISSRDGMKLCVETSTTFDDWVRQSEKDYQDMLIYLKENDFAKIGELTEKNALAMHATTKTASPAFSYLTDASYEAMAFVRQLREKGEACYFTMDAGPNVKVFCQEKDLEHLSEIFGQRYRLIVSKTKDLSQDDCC

With O=C(c1ccc(-n2sc3ccccc3c2=O)cc1)N1CCOCC1 the IC50 [1] was 13100 nM (active).
In the case of CCn1c2ccccc2c2cc(NC(=O)c3cc(OC)c(OC)c(OC)c3)ccc21, the EC50 (BJ [2]) is reported as 184 nM (active), the EC50 (BJ [3]) is reported as 745 nM (inconclusive) and the EC50 [4] is reported as 1000 nM (active). For the same molecule, the IC50 [5] was 534 nM (active), the EC50 [6] was 121 nM (active) and the EC50 (BJ [7]) was 165 nM (inconclusive). The EC50 [8] was 284 nM (inconclusive), the IC50 [9] was > 80000 nM (inactive) and the AC50 [10] was 25600 nM (active).
For CN1/C(=C\C=C2/C(=O)Oc3ccccc3C2=O)C(C)(C)c2ccccc21, the IC50 [11] was 178000 nM (active).
For Cc1ccc(Nc2ncccc2C(N)=O)cc1, the EC50 [12] was 1360 nM (active) and the EC50 [13] was > 67400 nM (inactive).
